From patent publication US20060198904A1, “Methods for inhibiting allergic inflammation and other responses initiated by pollens, molds, and other non-animal derived allergens” (priority 2002, published 2006)
Read-outs that look alike come from different tables or passages of the source.

Experiments:
NADPH oxidase = assay: NBT assay (reduction of NBT to formazan); type: biochemical, ragweed (Ambrosia artemisiifolia)
Procedure: NBT Assay. […]. Mixtures were then incubated for 15 min at 37° C., and the sedimented formazan was dissolved in methanol. The absorbance was determined at 530 nm in a spectrophotometer (DU 530, Beckman Instruments, Fullerton, Calif.).

[1] = tested on: lung-(NCI-H292) and kidney-(MDCK) derived epithelial cells; assay: Intracellular ROS (H2DCF-DA) in other epithelial cells; type: cell-based; settings: pre-treatment of epithelial cells, NAC 1 mM, FIG. 2B
Procedure: Cell Lines. Cells were obtained from the ATCC (A549, NCI-H292 and MDCK), or Cambrex Bio Science (Walkersville, Md.) (NHBE). Cells were maintained in humidified CO2 (5%) incubator and medium as recommended by the suppliers. Measurements of Reactive Oxygen Species. Epithelial cells (A549, NCI-H292, NHBE, and MDCK) were “loaded” with 50 μM H2DCF-DA (Molecular Probes, Eugene, Oreg.) at 37° C. for 15 minutes. After washing out excess probe, cells were treated with various allergenic extracts with or without NADPH (100 μM), NAC (1 mM), or NADPH oxidase inhibitors: quinacrine (500 μM) and diphenylene iodonium (100 μM). The change in fluorescence intensity was assessed in a FLx800 micro plate reader (Bio-Tek Instruments, Winooski, Vt.), or by flow cytometry (FACScan, Becton Dickinson, Franklin Lakes, N.J.) at 488 nm excitation and 530 nm emission. Each data point represents the mean fluorescence from three or more independent experiments, and is expressed ±s.e.m.

[2] = tested on: superoxide anions (O2.^−); assay: Cytochrome c assay for detecting O2.− generation; type: biochemical, ragweed (Ambrosia artemisiifolia); settings: SOD 50 U/ml added to pRWE^NOX+NADPH+Cyt c
Procedure: Cytochrome c Assay for Detecting O2.^− Generation. The method described by Messner and Imaly was used. The assay was carried out in PBS with 10 μg pRWE and 10 μM oxidized cytochrome c (Sigma-Aldrich) in the reaction mixture. The reactions were started by adding 100 μM NADPH, and the increase in A550 nm was recorded for 5 min. Saturating amounts of SOD 9(50 U/ml, Sigma-Aldrich) were used in a reference reaction to determine any such O2.^− independent reduction of cytochrome c by the sample.

[3] = tested on: normal human bronchial epithelial (NHBE) cells; assay: Intracellular ROS (H2DCF-DA) in cultured NHBE cells; type: cell-based; settings: quinacrine 500 μM, diphenylene iodonium 100 μM, FIG. 2A
Procedure: Cell Lines. Cells were obtained from the ATCC (A549, NCI-H292 and MDCK), or Cambrex Bio Science (Walkersville, Md.) (NHBE). Cells were maintained in humidified CO2 (5%) incubator and medium as recommended by the suppliers.
Measurements of Reactive Oxygen Species. Epithelial cells (A549, NCI-H292, NHBE, and MDCK) were “loaded” with 50 μM H2DCF-DA (Molecular Probes, Eugene, Oreg.) at 37° C. for 15 minutes. After washing out excess probe, cells were treated with various allergenic extracts with or without NADPH (100 μM), NAC (1 mM), or NADPH oxidase inhibitors: quinacrine (500 μM) and diphenylene iodonium (100 μM). The change in fluorescence intensity was assessed in a FLx800 micro plate reader (Bio-Tek Instruments, Winooski, Vt.), or by flow cytometry (FACScan, Becton Dickinson, Franklin Lakes, N.J.) at 488 nm excitation and 530 nm emission. Each data point represents the mean fluorescence from three or more independent experiments, and is expressed ±s.e.m.

Row | Compound | NBT reducing activity of pRWE^NOX in presence of the agent (NADPH oxidase; pRWE^NOX, FIG. 1A) | effect on extract-induced elevation in ROS levels [3] | further results
1 | [N-]=[N+]=[N-].[Na+] [azide, sodium azide] | – | – | NBT reducing activity of pRWE^NOX in presence of the agent (NADPH oxidase): resistant
2 | CC(=O)N[C@@H](CS)C(=O)O [N-acetyl-L-cysteine] | – | – | effect on RWE-induced increase in intracellular ROS levels [1]: inhibited; effect on RWE-induced increase in intracellular ROS levels ([1]; listed as NAC): inhibits
3 | superoxide dismutase | – | – | effect on the pRWE^NOX-induced increase in absorbance at 550 nm [2]: abrogated
4 | CCN(CC)CCCC(C)Nc1c2ccc(Cl)cc2nc2ccc(OC)cc12 (centres unmarked) [quinacrine] | inhibited | inhibited | –
5 | c1ccc2c(c1)[I+]c1ccccc1-2 [diphenyleneiodonium] | inhibited | inhibited | –
